# Measurements reported in ChEMBL document CHEMBL1154283, “Chrotacumines A-D, chromone alkaloids from Dysoxylum acutangulum” (J Nat Prod, 2009).
# Legend:
# Type in all cases: functional, cell-based
# HL-60 = assay: Cytotoxicity against human HL60 cells after 48 hrs by MTT assay; conditions: HL-60, 48 h
# NCI-H226 = assay: Cytotoxicity against human NCI-H226 cells after 48 hrs by MTT assay; conditions: NCI-H226, 48 h
# HCT-116 = assay: Cytotoxicity against human HCT116 cells after 48 hrs by MTT assay; conditions: HCT-116, 48 h
# A549 = assay: Cytotoxicity against human A549 cells after 48 hrs by MTT assay; conditions: A549, 48 h
# MCF7 = assay: Cytotoxicity against human MCF7 cells after 48 hrs by MTT assay; conditions: MCF7, 48 h
SMILES,IC50 (HL-60) [µM],IC50 (NCI-H226) [µM],IC50 (HCT-116) [µM],IC50 (A549) [µM],IC50 (MCF7) [µM]
Cc1cc(=O)c2c(O)cc3c(c2o1)[C@@H]1C[C@H](O3)N(C)C[C@H]1OC(=O)c1ccccc1 [CHROTACUMINE A],> 10,–,–,–,–
C/C=C(\C)C(=O)O[C@@H]1CN(C)CC[C@@H]1c1c(O)cc(O)c2c(=O)cc(C)oc12 [CHROTACUMINE B],> 10,–,–,–,–
COc1cc(C(=O)O[C@@H]2CN(C)CC[C@@H]2c2c(O)cc(O)c3c(=O)cc(C)oc23)cc(OC)c1OC [CHROTACUMINE C],> 10,–,–,–,–
COc1ccc(C(=O)O[C@@H]2CN(C)CC[C@@H]2c2c(O)cc(O)c3c(=O)cc(C)oc23)cc1OC [CHROTACUMINE D],> 10,–,–,–,–
Cc1cc(=O)c2c(O)cc(O)c([C@H]3CCN(C)C[C@H]3O)c2o1 [ROHITUKINE],7.5,> 10,8.8,> 10,> 10
